The assay addresses T1, memapsin 2 (Cricetulus griseus, UniProt G3IAK4).
T1 construct: endogenous in cells; host or cells: Chinese hamster ovary cells over-expressing human APP695 (London + Swedish)
Put plainly: Cellular Aβ IC50 determination (Aβ40 sandwich ELISA). It counts as cell-based. The following applies: Chinese hamster ovary cells over-expressing human APP695 with London and Swedish mutations, 24 h. As to the method: The potency of compounds against memapsin 2 activity was determined in a cellular assay of Aβ production. […] Chinese hamster ovary cells that over-express human APP695 with the London and Swedish mutations were seeded in multi-well plates at 10% confluency. Compounds were dissolved in DMSO to concentrations near 1 mM, and diluted into culture media to a final concentration near 4 μM (final 0.4% DMSO). Compounds were diluted serially and applied to cells in multi-well plates 48 h after seeding. Incubation was continued in 5% CO2 at 37 degrees C. for 24 h. Aliquots were removed and assayed for Aβ40 content using a sandwich ELISA (BioSource International). Amount of Aβ40 over the range of concentration of compounds, relative to control incubations, were fit to a 4-parameter IC50 model.
On the technique in general: An ELISA detects its analyte on a solid surface through an enzyme-linked reagent.

Bounds are passed on as bounds.

T1 sequence (G3IAK4 22-501): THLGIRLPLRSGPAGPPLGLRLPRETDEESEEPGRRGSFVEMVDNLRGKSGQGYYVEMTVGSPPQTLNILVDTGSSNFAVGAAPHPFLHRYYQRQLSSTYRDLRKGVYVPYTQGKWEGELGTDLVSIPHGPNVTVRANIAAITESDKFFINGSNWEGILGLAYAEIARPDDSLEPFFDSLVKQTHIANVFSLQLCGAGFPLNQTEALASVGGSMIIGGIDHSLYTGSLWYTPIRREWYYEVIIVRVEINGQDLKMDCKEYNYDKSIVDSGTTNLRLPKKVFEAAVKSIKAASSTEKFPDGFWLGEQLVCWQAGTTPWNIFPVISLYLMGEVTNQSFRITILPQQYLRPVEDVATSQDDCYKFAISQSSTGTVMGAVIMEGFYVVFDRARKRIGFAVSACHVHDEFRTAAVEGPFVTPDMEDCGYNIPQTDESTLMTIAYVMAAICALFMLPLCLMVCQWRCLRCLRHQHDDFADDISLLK

Usually IC50 stands for the concentration needed to halve the response being measured. Read a low IC50 as greater potency. With `CCC(Cc1nc(C)cs1)C(=O)NC(CNC(=O)OC(C)(C)C)C(=O)NC(CC(C)C)C(O)CC(C)C(=O)NC(C(=O)NCC(C)C)C(C)C` (stereo not shown) [tert-butyl 3-(5-hydroxy-8-(1-(isobutylamino)-3-methyl-1-oxobutan-2-ylamino)-2,7-dimethyl-8-oxooctan-4-ylamino)-2-(2-((4-methylthiazol-2-yl)methyl)butanamido)-3-oxopropylcarbamate], the IC50 was under 6 µM.

With `CCC(Cc1nc(C)cs1)C(=O)NC(CNC(=O)OC(C)C)C(=O)NC(CC(C)C)C(O)CC(C)C(=O)NC(C(=O)NCC(C)C)C(C)C` (stereo not shown) [isopropyl 3-(5-hydroxy-8-(1-(isobutylamino)-3-methyl-1-oxobutan-2-ylamino)-2,7-dimethyl-8-oxooctan-4-ylamino)-2-(2-((4-methylthiazol-2-yl)methyl)butanamido)-3-oxopropylcarbamate], the IC50 is under 6 µM. In the case of `CCC(CC(O)C(CC(C)C)NC(=O)C(CNC(=O)OC(C)(C)C)NC(=O)C(C)Cc1nc(C)cs1)C(=O)NC(C(=O)NCC(C)C)C(C)C` (stereo not shown) [tert-butyl 3-(5-hydroxy-7-(1-(isobutylamino)-3-methyl-1-oxobutan-2-ylcarbamoyl)-2-methylnonan-4-ylamino)-2-(2-methyl-3-(4-methylthiazol-2-yl)propanamido)-3-oxopropylcarbamate], the IC50 was under 6 µM.

Regarding `Cc1nc(CC(C)C(=O)NC(CNC(=O)OC(C)(C)C)C(=O)NC(CC(C)C)C(O)CC(C)C(=O)NC(C(=O)NCC(C)C)C(C)C)c(C)o1` (stereo not shown) [tert-butyl 2-(3-(2,5-dimethyloxazol-4-yl)-2-methylpropanamido)-3-(5-hydroxy-8-(1-(isobutylamino)-3-methyl-1-oxobutan-2-ylamino)-2,7-dimethyl-8-oxooctan-4-ylamino)-3-oxopropylcarbamate], the IC50 is under 6 µM. In the case of `Cc1csc(CC(C)C(=O)NC(CNC(=O)OC(C)(C)C)C(=O)NC(CC(C)C)C(O)CC(C)C(=O)NC(C(=O)NCC(C)C)C(C)C)n1` (stereo not shown) [tert-butyl 3-(5-hydroxy-8-(1-(isobutylamino)-3-methyl-1-oxobutan-2-ylamino)-2,7-dimethyl-8-oxooctan-4-ylamino)-2-(2-methyl-3-(4-methylthiazol-2-yl)propanamido)-3-oxopropylcarbamate], the half-inhibitory concentration (IC50) was under 6 µM. `Cc1cc(C)n(CC(N=[N+]=[N-])C(=O)NC(CNC(=O)OC(C)(C)C)C(=O)NC(CC(C)C)C(O)CC(C)C(=O)NC(C(=O)NCC(C)C)C(C)C)n1` (stereo not shown) [tert-butyl 2-(2-azido-3-(3,5-dimethyl-1H-pyrazol-1-yl)propanamido)-3-(5-hydroxy-8-(1-(isobutylamino)-3-methyl-1-oxobutan-2-ylamino)-2,7-dimethyl-8-oxooctan-4-ylamino)-3-oxopropylcarbamate]: the half-inhibitory concentration (IC50) was in the range of 6 to 100 µM.

For the compound `Cc1csc(CC(C)C(=O)NC(CNC(=O)OC2CCOC2)C(=O)NC(CC(C)C)C(O)CC(C)C(=O)NC(C(=O)NCC(C)C)C(C)C)n1` (stereo not shown) [tetrahydrofuran-3-yl 3-(5-hydroxy-8-(1-(isobutylamino)-3-methyl-1-oxobutan-2-ylamino)-2,7-dimethyl-8-oxooctan-4-ylamino)-2-(2-methyl-3-(4-methylthiazol-2-yl)propanamido)-3-oxopropylcarbamate], the IC50 is under 6 µM. For the compound `CCC(Cn1nc(C)cc1C)C(=O)NC(CNC(=O)OCCF)C(=O)NC(CC(C)C)C(O)CC(C)C(=O)NC(C(=O)NCC(C)C)C(C)C` (stereo not shown) [2-fluoroethyl 2-(2-((3,5-dimethyl-1H-pyrazol-1-yl)methyl)butanamido)-3-(5-hydroxy-8-(1-(isobutylamino)-3-methyl-1-oxobutan-2-ylamino)-2,7-dimethyl-8-oxooctan-4-ylamino)-3-oxopropylcarbamate], the IC50 is 6 to 100 µM.

As for `CCC(Cn1nc(C)cc1C)C(=O)NC(CNC(=O)OC(C)(C)C)C(=O)NC(CC(C)C)C(O)CC(C)C(=O)NC(C(=O)NCc1ccccn1)C(C)C` (stereo not shown) [tert-butyl 2-(2-((3,5-dimethyl-1H-pyrazol-1-yl)methyl)butanamido)-3-(5-hydroxy-2,7-dimethyl-8-(3-methyl-1-oxo-1-(pyridin-2-ylmethylamino)butan-2-ylamino)-8-oxooctan-4-ylamino)-3-oxopropylcarbamate], the IC50 fell in the range of 6 to 100 µM. The compound `Cc1cc(C)n(CC(C)C(=O)NC(CNC(=O)OC2CCOC2)C(=O)NC(CC(C)C)C(O)CC(C)C(=O)NC(C(=O)NCC(C)C)C(C)C)n1` (stereo not shown) [tetrahydrofuran-3-yl 2-(3-(3,5-dimethyl-1H-pyrazol-1-yl)-2-methylpropanamido)-3-(5-hydroxy-8-(1-(isobutylamino)-3-methyl-1-oxobutan-2-ylamino)-2,7-dimethyl-8-oxooctan-4-ylamino)-3-oxopropylcarbamate] displayed an IC50 of 6 to 100 µM. As for `Cc1csc(CC(C)C(=O)NC(CN)C(=O)NC(CC(C)C)C(O)CC(C)C(=O)NC(C(=O)NCC(C)C)C(C)C)n1` (stereo not shown) [5-(3-amino-2-(2-methyl-3-(4-methylthiazol-2-yl)propanamido)propanamido)-4-hydroxy-N-(1-(isobutylamino)-3-methyl-1-oxobutan-2-yl)-2,7-dimethyloctanamide], the 50% inhibitory concentration (IC50) lay in the range of 6 to 100 µM. Take `Cc1csc(COC(=O)NCC(NC(=O)C(C)Cc2nc(C)cs2)C(=O)NC(CC(C)C)C(O)CC(C)C(=O)NC(C(=O)NCC(C)C)C(C)C)n1` (stereo not shown) [(4-methylthiazol-2-yl)methyl 3-(5-hydroxy-8-(1-(isobutylamino)-3-methyl-1-oxobutan-2-ylamino)-2,7-dimethyl-8-oxooctan-4-ylamino)-2-(2-methyl-3-(4-methylthiazol-2-yl)propanamido)-3-oxopropylcarbamate]: the IC50 was under 6 µM.

In turn, `Cc1csc(CC(C)C(=O)NC(CNC(=O)OC(C)(C)C)C(=O)NC(CC(C)C)C(O)CC(C)C(=O)NC(C(=O)NCc2ccncc2)C(C)C)n1` (stereo not shown) [tert-butyl 3-(5-hydroxy-2,7-dimethyl-8-(3-methyl-1-oxo-1-(pyridin-4-ylmethylamino)butan-2-ylamino)-8-oxooctan-4-ylamino)-2-(2-methyl-3-(4-methylthiazol-2-yl)propanamido)-3-oxopropylcarbamate] registered an IC50 of under 6 µM. `COCCOC(=O)NCC(NC(=O)C(C)Cc1nc(C)cs1)C(=O)NC(CC(C)C)C(O)CC(C)C(=O)NC(C(=O)NCC(C)C)C(C)C` (stereo not shown) [2-methoxyethyl 3-(5-hydroxy-8-(1-(isobutylamino)-3-methyl-1-oxobutan-2-ylamino)-2,7-dimethyl-8-oxooctan-4-ylamino)-2-(2-methyl-3-(4-methylthiazol-2-yl)propanamido)-3-oxopropylcarbamate] showed an IC50 of under 6 µM. Regarding `Cc1csc(CC(C)C(=O)NC(CNC(=O)OC(C)(C)C)C(=O)NC(Cc2cc(F)cc(F)c2)C(O)CC(C)C(=O)NC(C(=O)NCC(C)C)C(C)C)n1` (stereo not shown) [tert-butyl 3-(1-(3,5-difluorophenyl)-3-hydroxy-6-(1-(isobutylamino)-3-methyl-1-oxobutan-2-ylamino)-5-methyl-6-oxohexan-2-ylamino)-2-(2-methyl-3-(4-methylthiazol-2-yl)propanamido)-3-oxopropylcarbamate], the IC50 lay within 6 to 100 µM. `Cc1cc(C)n(CC(N)C(=O)NC(CNC(=O)OC(C)(C)C)C(=O)NC(CC(C)C)C(O)CC(C)C(=O)NC(C(=O)NCC(C)C)C(C)C)n1` (stereo not shown) [tert-butyl 2-(2-amino-3-(3,5-dimethyl-1H-pyrazol-1-yl)propanamido)-3-(5-hydroxy-8-(1-(isobutylamino)-3-methyl-1-oxobutan-2-ylamino)-2,7-dimethyl-8-oxooctan-4-ylamino)-3-oxopropylcarbamate]: the half-maximal inhibitory concentration (IC50) is over 100 µM. Turning to `CCC(Cn1nc(C)cc1C)C(=O)NC(CNC(=O)OC(C)(C)C)C(=O)NC(CC(C)C)C(O)CC(C)C(=O)NC(C(=O)NCC(C)C)C(C)C` (stereo not shown) [tert-butyl 2-(2-((3,5-dimethyl-1H-pyrazol-1-yl)methyl)butanamido)-3-(5-hydroxy-8-(1-(isobutylamino)-3-methyl-1-oxobutan-2-ylamino)-2,7-dimethyl-8-oxooctan-4-ylamino)-3-oxopropylcarbamate], the 50% inhibitory concentration (IC50) was under 6 µM. Turning to `Cc1csc(COC(=O)N[C@@H](CNS(C)(=O)=O)C(=O)N[C@@H](CC(C)C)[C@@H](O)C[C@@H](C)C(=O)N[C@H](C(=O)NCC(C)C)C(C)C)n1`, the IC50 is over 100 µM. With `COC(Cn1nc(C)cc1C)C(=O)NC(CNC(=O)OC(C)(C)C)C(=O)NC(CC(C)C)C(O)CC(C)C(=O)NC(C(=O)NCC(C)C)C(C)C` (stereo not shown) [tert-butyl 2-(3-(3,5-dimethyl-1H-pyrazol-1-yl)-2-methoxypropanamido)-3-(5-hydroxy-8-(1-(isobutylamino)-3-methyl-1-oxobutan-2-ylamino)-2,7-dimethyl-8-oxooctan-4-ylamino)-3-oxopropylcarbamate], the IC50 is over 100 µM.

`CCC(Cn1nc(C)cc1C)C(=O)NC(CNC(=O)OC(C)(C)C)C(=O)NC(CC(C)C)C(O)CC(C)C(=O)NC(C(=O)NCc1ccncc1)C(C)C` (stereo not shown) [tert-butyl 2-(2-((3,5-dimethyl-1H-pyrazol-1-yl)methyl)butanamido)-3-(5-hydroxy-2,7-dimethyl-8-(3-methyl-1-oxo-1-(pyridin-4-ylmethylamino)butan-2-ylamino)-8-oxooctan-4-ylamino)-3-oxopropylcarbamate] yielded an IC50 of under 6 µM. Consider `Cc1csc(CC(C)C(=O)NC(CN(C)S(C)(=O)=O)C(=O)NC(CC(C)C)C(O)CC(C)C(=O)NC(C(=O)NCC(C)C)C(C)C)n1` (stereo not shown) [4-hydroxy-N-(1-(isobutylamino)-3-methyl-1-oxobutan-2-yl)-2,7-dimethyl-5-(2-(2-methyl-3-(4-methylthiazol-2-yl)propanamido)-3-(N-methylmethylsulfonamido)propanamido)octanamide], for which the concentration for half-maximal inhibition (IC50) was 6 to 100 µM. For `Cc1csc(COC(=O)N[C@@H](CNC(=O)O[C@H]2CCOC2)C(=O)N[C@@H](CC(C)C)[C@@H](O)C[C@@H](C)C(=O)N[C@H](C(=O)NCC(C)C)C(C)C)n1` the value was 6 to 100 µM.

The values are drawn from patent US20080125467A1, “Amino-Containing Compounds Which Inhibit Memapsin 2 Beta-Secretase Activity and Methods of Use Thereof” (priority 2004, published 2008).
